Data published in the supplement of paper PMC10307832.

Assays:
Test in all cases: relative viability (nuclei count vs DMSO), 5 days (fraction); higher = more cells survive
MK-8033 + Pemetrexed = compound: Cn1cc(-c2cnc3ccc4ccc(CS(=O)(=O)NCc5ccccn5)cc4c(=O)c3c2)cn1 [MK-8033] + Nc1nc2[nH]cc(CCc3ccc(C(=O)N[C@@H](CCC(=O)O)C(=O)O)cc3)c2c(=O)[nH]1 [Pemetrexed] (partner 0.2 µM)
Procedure, shortened: (§1)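 Lung cancer cell lines in 1536-well plates got either a single drug or a fixed anchor-drug dose together with five library-drug doses (not always all listed) in √10 steps, by pin tool, on the day after seeding. Nuclei were counted after 5 days, and relative viability is the treated-to-vehicle ratio of nuclei counts. Values are medians of duplicate plates.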

RU-SKI 43 + Navitoclax = compound: CC[C@@H](C)CNCC(=O)N1CCC2=C([C@@H]1COC3=CC=CC(=C3)C)C=CS2 [RU-SKI 43] + CC1(C)CCC(c2ccc(Cl)cc2)=C(CN2CCN(c3ccc(C(=O)NS(=O)(=O)c4ccc(N[C@H](CCN5CCOCC5)CSc5ccccc5)c(S(=O)(=O)C(F)(F)F)c4)cc3)CC2)C1 [Navitoclax] (partner 0.5 µM)
Procedure, shortened: as §1

Irinotecan + Navitoclax = compound: CCc1c2c(nc3ccc(OC(=O)N4CCC(N5CCCCC5)CC4)cc13)-c1cc3c(c(=O)n1C2)COC(=O)[C@]3(O)CC [Irinotecan] + CC1(C)CCC(c2ccc(Cl)cc2)=C(CN2CCN(c3ccc(C(=O)NS(=O)(=O)c4ccc(N[C@H](CCN5CCOCC5)CSc5ccccc5)c(S(=O)(=O)C(F)(F)F)c4)cc3)CC2)C1 [Navitoclax] (partner 0.5 µM)
Procedure, shortened: as §1

Irinotecan + Palbociclib = compound: CCc1c2c(nc3ccc(OC(=O)N4CCC(N5CCCCC5)CC4)cc13)-c1cc3c(c(=O)n1C2)COC(=O)[C@]3(O)CC [Irinotecan] + CC(=O)c1c(C)c2cnc(Nc3ccc(N4CCNCC4)cn3)nc2n(C2CCCC2)c1=O [Palbociclib] (partner 0.5 µM)
Procedure, shortened: as §1

Row | Cell Line | relative viability (MK-8033 + Pemetrexed; first compound 0.02 µM) | relative viability (MK-8033 + Pemetrexed; first compound 0.06325 µM) | relative viability (MK-8033 + Pemetrexed; first compound 0.2 µM) | relative viability (MK-8033 + Pemetrexed; first compound 0.6325 µM) | relative viability (MK-8033 + Pemetrexed; first compound 2 µM) | relative viability (RU-SKI 43 + Navitoclax; first compound 0.1 µM) | relative viability (RU-SKI 43 + Navitoclax; first compound 0.3162 µM) | relative viability (RU-SKI 43 + Navitoclax; first compound 1 µM) | relative viability (RU-SKI 43 + Navitoclax; first compound 3.162 µM) | relative viability (RU-SKI 43 + Navitoclax; first compound 10 µM) | relative viability (Irinotecan + Navitoclax; first compound 0.6325 µM) | relative viability (Irinotecan + Navitoclax; first compound 2 µM) | relative viability (Irinotecan + Navitoclax; first compound 6.325 µM) | relative viability (Irinotecan + Navitoclax; first compound 20 µM) | relative viability (Irinotecan + Palbociclib; first compound 0.6325 µM) | relative viability (Irinotecan + Palbociclib; first compound 2 µM) | relative viability (Irinotecan + Palbociclib; first compound 6.325 µM) | relative viability (Irinotecan + Palbociclib; first compound 20 µM)
1 | NCI-H1651 | 0.633 | 0.561 | 0.56 | 0.685 | 0.582 | 1.05 | 1.24 | 1.14 | 1.01 | 1.01 | 0.763 | 0.544 | 0.199 | 0.168 | 0.529 | 0.491 | 0.305 | 0.162
2 | NCI-H1355 | 1.03 | 0.996 | 0.965 | 1.05 | 1 | 0.936 | 0.996 | 0.921 | 0.979 | 0.997 | 0.812 | 0.28 | 0.195 | 0.237 |  | 0.393 | 0.215 | 0.206
3 | NCI-H1563 | 0.736 | 0.695 | 0.738 | 0.69 | 0.794 |  |  |  |  |  |  |  |  |  |  |  |  | 
4 | NCI-H1650 | 0.429 | 0.332 | 0.457 | 0.39 | 0.336 | 1.17 | 1.38 | 1.41 | 1.06 | 0.813 | 1.07 | 0.808 | 0.394 | 0.316 | 0.184 | 0.305 | 0.285 | 0.101
5 | HCC-78 | 0.936 | 0.923 | 0.928 | 0.587 | 0.851 | 0.758 | 0.96 | 1.03 | 0.834 | 0.772 | 0.75 | 0.525 | 0.202 | 0.191 | 0.474 | 0.363 | 0.37 | 0.347
6 | NCI-H1437 | 0.295 | 0.281 | 0.308 | 0.319 | 0.308 | 1.08 | 1.33 | 1.13 | 1.09 | 0.998 | 0.75 | 0.575 | 0.308 | 0.214 | 0.319 | 0.337 | 0.301 | 0.258
7 | BEN | 0.924 | 0.694 | 0.752 | 0.765 | 0.758 | 0.0754 | 0.0554 | 0.064 | 0.0685 | 0.0709 | 0.0453 | 0.0844 | 0.0937 | 0.248 | 0.45 | 0.448 | 0.387 | 0.534
8 | LCLC-103H | 0.504 | 0.446 | 0.457 | 0.482 | 0.458 |  |  |  |  |  |  |  |  |  | 0.452 | 0.412 | 0.446 | 0.5
9 | NCI-H1915 | 0.51 | 0.491 | 0.497 | 0.472 | 0.428 | 0.776 | 0.83 | 0.8 | 0.821 | 0.78 | 0.318 | 0.18 | 0.151 | 0.115 | 0.224 | 0.182 | 0.137 | 0.121
10 | NCI-H2085 | 0.722 | 0.767 | 0.862 | 0.874 | 0.875 | 1.17 | 1.11 | 1.2 | 1.08 | 1.12 | 1.03 | 0.862 | 0.493 | 0.507 | 0.461 | 0.344 | 0.382 | 0.358
11 | NCI-H23 | 0.632 | 0.517 | 0.512 |  | 0.497 | 0.615 | 0.9 | 0.99 | 0.998 | 0.687 | 0.782 | 0.505 | 0.26 | 0.22 | 0.446 | 0.332 | 0.249 | 0.254
12 | EPLC-272H | 0.359 | 0.357 | 0.345 | 0.376 | 0.313 | 1.17 | 1.12 | 1.03 |  | 1.13 | 0.658 | 0.17 | 0.144 | 0.209 |  | 0.22 | 0.304 | 0.264
13 | EBC-1 |  |  |  |  |  | 0.358 | 0.294 | 0.401 | 0.366 | 0.223 | 0.304 | 0.406 | 0.378 | 0.133 |  |  |  | 
14 | SK-MES-1 | 0.986 | 0.949 | 0.904 | 0.892 | 0.853 | 1.31 | 1.55 | 1.33 | 1.25 | 1.12 | 1.29 | 1.22 | 0.226 | 0.208 | 0.354 | 0.342 | 0.291 | 0.175
15 | A549 |  |  |  |  |  | 1.24 | 1.51 | 1.17 | 1.23 | 1.08 | 0.997 | 0.639 | 0.118 | 0.0499 |  |  |  | 
16 | NCI-H2126 | 0.674 | 0.661 | 0.613 | 0.689 | 0.649 | 0.776 | 0.863 | 0.875 | 0.875 | 0.862 |  | 0.421 | 0.319 | 0.308 | 0.342 | 0.242 | 0.323 | 0.381
17 | NCI-H2087 | 0.622 | 0.714 | 0.629 | 0.578 | 0.674 | 1.05 | 0.94 | 0.943 | 0.911 | 0.998 | 0.468 | 0.26 | 0.184 | 0.218 | 0.192 | 0.219 | 0.174 | 0.204
18 | EMC-BAC-2 | 0.453 | 0.406 | 0.46 | 0.419 | 0.439 | 1.14 | 1.57 | 1.21 | 1.26 | 1.15 | 0.705 | 0.36 | 0.202 | 0.226 | 0.387 | 0.346 | 0.337 | 0.248
19 | SW 900 | 0.489 | 0.401 | 0.47 | 0.507 | 0.463 |  |  |  |  |  |  |  |  |  |  | 0.42 | 0.274 | 0.416
20 | NCI-H647 | 0.199 | 0.166 | 0.165 | 0.185 | 0.172 | 1.12 | 1.29 | 1.26 | 1.23 | 1.15 | 1.03 | 0.39 | 0.194 | 0.177 | 0.311 | 0.31 | 0.136 | 0.0705
